Drawing on patent publication US9944656B2, “Benzothiazole macrocycles as inhibitors of human immunodeficiency virus replication” (priority 2014, dated 2018), this text covers EC50 for two compounds.

This assay has as its system recombinant NL-RLuc virus (HIV, NL4-3 derived) in MT-2 cells. The assay is described as follows: Inhibition of HIV replication (NL-RLuc virus in MT-2 cells, luciferase readout). Format: cell-based. As to conditions: 5 days of incubation, 10% FBS. The text has this:
Inhibition of HIV Replication.
A recombinant NL-RLuc proviral clone was constructed in which a section of the nef gene from NL4-3 was replaced with the Renilla Luciferase gene. This virus is fully infectious and can undergo multiple cycles of replication in cell culture. In addition, the luciferous reporter provides a simple and easy method for quantitating the extent of virus growth and consequently, the antiviral activity of test compounds. The plasmid pNLRLuc contains the proviral NL-Rluc DNA cloned into pUC 18 at the PvuII site. The NL-RLuc virus was prepared by transfection of 293T cells with the plasmid pNLRLuc. Transfections were performed using the LipofectAMINE PLUS kit from Invitrogen (Carlsbad, Calif.) according to the manufacturer and the virus generated was titered in MT-2 cells. For susceptibility analyses, the titrated virus was used to infect MT-2 cells in the presence of compound, and after 5 days of incubation, cells were processed and quantitated for virus growth by the amount of expressed luciferase. […] Luciferase was quantitated using the Dual Luciferase kit from Promega (Madison, Wis.). Susceptibility of viruses to compounds was determined by incubation in the presence of serial dilutions of the compound. […]

By EC50 is commonly meant the concentration needed to bring the measured effect to its halfway point. With `Cc1ccc2c(c1)-c1cccc(c1)-c1nc3cc(C)c([C@H](OC(C)(C)C)C(=O)O)c(c3s1)-c1ccc3c(c1)C(CCCC[C@H](C)O2)CCO3` (single isomer, unassigned) [Example 1], the EC50 was found to be 5620 nM.

Turning to `Cc1ccc2c(c1)-c1cccc(c1)-c1nc3cc(C)c([C@H](OC(C)(C)C)C(=O)O)c(c3s1)-c1ccc3c(c1)C(CCCC[C@H](C)O2)CCO3` (single isomer, unassigned) [Example 2], the EC50 was 350 nM.
